Reference: ChEMBL document CHEMBL6182885, “Discovery, Biological Activity, and Biosynthesis of Pinocicolin A, an Antibiotic Isocyanide Metabolite Produced by Penicillium pinophilum” (J Nat Prod, 2025)

Columns and labels:
[1] = system: Brevibacillus choshinensis; experiment: Antibacterial activity against Brevibacillus SP3 incubated overnight by disc diffusion assay; type: functional
Pseudomonas aeruginosa = experiment: Antibacterial activity against Pseudomonas aeruginosa NBRC12689 incubated overnight by disc diffusion assay; type: functional
Staphylococcus aureus = experiment: Antibacterial activity against Staphylococcus aureus NBRC13276 incubated overnight by disc diffusion assay; type: functional
[2] = Metal chelating activity assessed as CAS-Cu complex formation in presence of CAS/CuCl2 by UV-Vis spectrophotometric analysis
Escherichia coli = experiment: Antibacterial activity against Escherichia coli NEB10beta incubated overnight by disc diffusion assay; type: functional
Jonesia denitrificans = experiment: Antibacterial activity against Listeria denitrificans NBRC15587 incubated overnight by disc diffusion assay; type: functional

| MIC (Pseudomonas aeruginosa) [µg] | MIC (Staphylococcus aureus) [µg] | EC50 [2] [µM] | MIC (Escherichia coli) [µg] | MIC (Jonesia denitrificans) [µg] | Structure (SMILES) | MIC [1] [µg] |
| --- | --- | --- | --- | --- | --- | --- |
| >100 | 5 | 8 | >100 | 5 | [C-]#[N+][C@H](C(=O)OC[C@@H](O)[C@@H](O)[C@H](O)[C@H](O)COC(=O)[C@@H]([N+]#[C-])C(C)C)C(C)C | 5 |
| >100 | >100 |  | >100 | >100 | CC(C)[C@H](NC=O)C(=O)OC[C@@H](O)[C@@H](O)[C@H](O)[C@H](O)COC(=O)[C@@H](NC=O)C(C)C | >100 |
| >100 | >100 | 26.9 | >100 | >100 | [C-]#[N+][C@H](C(=O)OC[C@@H](O)[C@@H](O)[C@H](O)[C@H](O)COC(=O)[C@@H](NC=O)C(C)C)C(C)C | >100 |
